Experimental findings from the Deep4Chem optical property database are described below.

A short description of the data set: solvent given as SMILES.

Regarding `CCCCCCCCCCCCOc1ccc(C2=C3C(=O)N(CC(OCC)OCC)C(c4ccc(OCCCCCCCCCCCC)c(OCCCCCCCCCCCC)c4)=C3C(=O)N2CC(OCC)OCC)cc1OCCCCCCCCCCCC`, the absorption maximum (in ClC(Cl)Cl) came to 496 nm.

In the case of `COc1ccc(-c2csc(/C(C#N)=C/c3c(Cl)cccc3Cl)n2)cc1`, the absorption maximum (in CC#N) is reported as 360 nm.

For the compound `CCCCOc1ccc(/C=C/C=C/C=C/c2ccc([N+](=O)[O-])cc2)cc1`, the absorption maximum is recorded as 414 nm (in CC1CCCCC1), 413 nm (in CC#N), 420 nm (in Cc1ccccc1) and 421 nm (in ClCCl).

As to `CC(C)(C)c1ccc(-c2c3ccccc3c3n2[B-](F)(F)[N+]2=Cc4c5ccccc5c(-c5ccc(C(C)(C)C)cc5)n4[B-](F)(F)[N+]2=C3)cc1`, the absorption maximum (in CC#N) was found to be 557 nm; the absorption maximum (in CCCCCC) is reported as 568 nm; the absorption maximum (in CN(C)C=O) was 566 nm; the absorption maximum (in Cc1ccccc1) came out at 573 nm; the absorption maximum (in ClCCl) is 567 nm.

For `Cc1cc(/N=C/c2cc(S(=O)(=O)[O][Na])ccc2O)c(/N=C/c2cc(S(=O)(=O)[O][Na])ccc2O)cc1C`, the absorption maximum (in O) is given as 371 nm.

Where the note is “in ClCCl”, `CC(C)(C)NC(=O)c1ccc(-c2cc3ccccc3s2)c2ccc3c4ccccc4c4ccccc4c3c12` yielded an absorption maximum of 350 nm.

`CCCCn1c2ccc(C#N)cc2c2cc(C#N)ccc21`: the absorption maximum (in ClCCl) was determined as 349 nm.

Consider `Cc1cc(=O)oc2cc3cc(-c4cn(Cc5ccccc5)nn4)ccc3cc12`, for which the absorption maximum (in CCO) amounted to 339 nm.

Regarding `CCn1ncc2c3c(C#N)c4c5ccccc5n(CC)c4nc3ccc21`, where the note is “in CCOC(C)=O”, the absorption maximum amounted to 383 nm.

The compound `COc1ccc2c(c1)-c1cc(OC)ccc1C2=O` gave an absorption maximum (in C1CCCCC1) of 361 nm, an absorption maximum (in CC#N) of 376 nm and an absorption maximum (in CCO) of 382 nm.

As for `O=C([O-])c1ccc(C2=c3cc4c5c(c3Oc3c2cc2c6c3CCCN6CCC2)CCC[N+]=5CCC4)c(C(=O)[O-])c1`, the absorption maximum is 573 nm (in CCO) and 574 nm (in O).

Regarding `CC(=O)c1nc(-c2ccc(N(c3ccccc3)c3ccccc3)cc2)oc1C`, the absorption maximum reads like this: (in CC#N) 332 nm; (in CCCCCC) 324 nm; (in CCO) 333 nm; (in CCOC(C)=O) 326 nm; (in CCOCC) 326 nm; (in ClCCl) 328 nm.

With `C(#Cc1ccccc1)C(C#Cc1ccccc1)=Cc1ccc(C=C(C#Cc2ccccc2)C#Cc2ccccc2)s1`, the absorption maximum (in ClC(Cl)Cl) worked out at 468 nm.

On to `CC(C)c1ccc(-c2nc(-c3ccccc3)c3ccccn23)cc1`, for which the absorption maximum (in CC#N) was determined as 380 nm.

For `O=S(=O)(c1ccc2c(c1)c1ccccc1n2-c1ccccc1)c1ccc2c(c1)c1ccccc1n2-c1ccccc1`, the absorption maximum (in ClCCl) stood at 290 nm.

Turning to `c1ccc(N(c2ccccc2)c2ccc(-c3cccc4nc5ccccc5cc34)cc2)cc1`, the absorption maximum is, setting by setting: (in C1CCOC1) 391 nm; (in CC#N) 390 nm; (in CC(C)OC(C)C) 389 nm; (in CCCCCC) 386 nm; (in CCCCOCCCC) 390 nm; (in CCN(CC)CC) 389 nm. Further, the absorption maximum reads like this: (in CCOC(C)=O) 390 nm; (in CCOCC) 386 nm; (in CN(C)C=O) 390 nm; (in ClCCl) 396 nm.

The compound `COC(=O)c1[nH]c(-c2ccccc2)c2nnc3ccsc3c12` returned an absorption maximum (in ClCCl) of 401 nm.

The compound `C[C@]12SC(=O)C=C1c1nc(-c3ccccc3)[nH]c1C1=CC(=O)S[C@@]12C` came in with an absorption maximum (in CC#N) of 460 nm.

In the case of `CC/[NH+]=c1\cc2oc3cc(NCCC(=O)O)c4ccccc4c3nc-2cc1C`, the absorption maximum (in CCO) was 590 nm and the absorption maximum (in O) is reported as 580 nm.

For `Cc1ccc(N2C(c3ccccc3N)=NC(c3ccccc3)C2c2ccccc2)cc1` (configuration not stated), where the note is “in Cc1ccccc1”, the absorption maximum is 282 nm.

On to `CCN(CC)c1ccc(/C=C/C(=O)c2c(O)cc(C)oc2=O)cc1`, for which the absorption maximum reads like this: (in CC#N) 476 nm; (in CCCO) 468 nm; (in CCO) 488 nm; (in CCOC(C)=O) 472 nm; (in Cc1ccccc1) 471 nm; (in ClCCl) 480 nm.

Where the note is “in CO”, `O=C1C=C(Nc2ccc(F)c(F)c2)C(=O)c2ccccc21` gave an absorption maximum of 454 nm.

In the case of `CC1(C)c2ccccc2-c2ccc(N(c3ccccc3)c3ccc4c(c3)C(C)(C)c3cc(-c5cc6ccccc6c6c5oc5ccccc56)ccc3-4)cc21`, the absorption maximum (in C1CCOC1) worked out at 382 nm.

Consider `CCN(CC)c1ccc2c(c1)oc(=O)c1c(-c3ccccc3C(=O)O)c3ccc(=[N+](CC)CC)cc-3oc12`, for which the absorption maximum by setting is: (in CCO) 591 nm; (in ClC(Cl)Cl) 602 nm; (in O) 594 nm.

`CN(C)c1ccc2c(c1)[Si](C)(C)C1=CC(=[N+](C)C)C=CC1=C2C#Cc1ccccc1` yielded an absorption maximum (in CO) of 712 nm and an absorption maximum (in O) of 712 nm.

As for `O=Cc1ccc2ccc3cccc4ccc1c2c34`, the absorption maximum runs as follows: (in C1CCOC1) 391 nm; (in CC#N) 390 nm; (in CCCCCC) 387 nm; (in CCO) 389 nm; (in CN(C)C=O) 390 nm; (in CO) 389 nm. Moreover, the absorption maximum reads like this: (in Cc1ccccc1) 391 nm; (in ClCCl) 392 nm.

For the compound `Cc1ccc(-c2c3nc(c(-c4ccc(C)cc4)c4ccc([nH]4)c(-c4ccc(OC(=O)C(C)c5cccc(C(=O)c6ccccc6)c5)cc4)c4nc(c(-c5ccc(C)cc5)c5ccc2[nH]5)C=C4)C=C3)cc1` (configuration not stated), the absorption maximum (in ClCCl) stood at 649 nm.

As to `Cc1cc(C)cc(NC(=O)c2sc(Br)nc2C)c1`, the absorption maximum runs as follows: (in C1CCOC1) 293.4 nm; (in CC#N) 285 nm; (in CCCCCC) 280.5 nm; (in CCOC(C)=O) 282.5 nm; (in CN(C)C=O) 285.3 nm; (in CO) 271.5 nm. The absorption maximum was 283.1 nm (in CS(C)=O) and 278 nm (in ClC(Cl)Cl).

Under “in C1COCCO1”, `COc1ccc(C2=C/C(=C\c3ccccc3)C(=O)O2)cc1OC` displayed an absorption maximum of 406 nm.

Turning to `CCCCn1c(=O)c2cc3ccc4cccc5ccc(c2c1=O)c3c45`, the absorption maximum (in ClC(Cl)Cl) is recorded as 427 nm.

As for `CC(C)(C)c1cc2c(c(C(C)(C)C)c1)O[B-](F)(F)[n+]1c-2nc(-c2ccccc2)c2cc(Cl)ccc21`, the absorption maximum (in Cc1ccccc1) stood at 420 nm.

Consider `N#Cc1nc(N(Cc2ccc(Br)cc2)Cc2ccc(Br)cc2)c(C#N)nc1N(Cc1ccc(Br)cc1)Cc1ccc(Br)cc1`, for which, for the setting “in ClC(Cl)Cl”, the absorption maximum is 485 nm.

With `C(S/C=C/c1ccc(/C=C/SC=C(c2ccccc2)c2ccccc2)cc1)=C(c1ccccc1)c1ccccc1`, the absorption maximum (in ClCCl) stood at 366 nm.

Consider `COc1ccc(-n2nc(C#N)c(N3CCCC3)n2)cc1`, for which the absorption maximum (in CC#N) is recorded as 340 nm; the absorption maximum (in CCCCCC) is 335 nm; the absorption maximum (in CCO) is given as 339 nm; the absorption maximum (in CN(C)C=O) was found to be 343 nm; the absorption maximum (in CO) was found to be 340 nm; the absorption maximum (in ClC(Cl)Cl) is listed as 342 nm.

In turn, `COc1ccc2ccccc2c1C1=CC(c2ccccc2)=C(c2ccccc2)C1` gave an absorption maximum (in ClCCl) of 340 nm.
